The source made the active and inactive calls. The rule behind the calls is not given here.
What was measured:
A549 = experiment: Cytotoxicity against human A549 cells assessed as reduction in cell viability incubated for 24 hrs by CCK-8 assay; type: functional, cell-based; conditions: A549, 24 h
Jurkat [1] = experiment: Induction of apoptosis against human Jurkat cells assessed as necrotic cells at 10 uM measured for 24 hrs by Annexin V-FITC/propidium iodide staining based flow cytometry (reference value: 0.00%); type: functional
B16-F10 = experiment: Cytotoxicity against mouse B16-F10 cells assessed as reduction in cell viability incubated for 24 hrs by CCK-8 assay; type: functional, cell-based; conditions: B16-F10, 24 h
Jurkat [2] = experiment: Upregulation of phosphorylated p38 protein expression in human Jurkat cells measured for 3 hrs; type: functional, cell-based; conditions: dose 0.1-10 µM
[3] = biological target: T1, Serine/threonine-protein kinase AKT (Homo sapiens) (UniProt P31751+Q9Y243+P31749); experiment: Inhibition of AKT phosphorylation in human THP-1 cells incubated for 1 to 12 hrs by Western blot analysis relative to control; type: cell-based; conditions: dose 0.1-10 µM, time 1-12 hrs
Jurkat [4] = experiment: Induction of apoptosis against human Jurkat cells assessed as viable cells at 1 uM measured for 24 hrs by Annexin V-FITC/propidium iodide staining based flow cytometry (reference value: 94.2 %); type: functional; conditions: read-out: Activity
[5] = biological target: T2, Phosphatidylinositol 4,5-bisphosphate 3-kinase catalytic subunit delta isoform (Homo sapiens) (UniProt O00329); experiment: Antagonist activity at PI3Kdelta (unknown origin) assessed as inhibition rate at 20 nM using PIP2 as substrate in presence of ATP incubated for 30 to 60 mins by ADP-glo based luminescence assay relative to control; conditions: time 30-60 min
T2 sequence (whole entry): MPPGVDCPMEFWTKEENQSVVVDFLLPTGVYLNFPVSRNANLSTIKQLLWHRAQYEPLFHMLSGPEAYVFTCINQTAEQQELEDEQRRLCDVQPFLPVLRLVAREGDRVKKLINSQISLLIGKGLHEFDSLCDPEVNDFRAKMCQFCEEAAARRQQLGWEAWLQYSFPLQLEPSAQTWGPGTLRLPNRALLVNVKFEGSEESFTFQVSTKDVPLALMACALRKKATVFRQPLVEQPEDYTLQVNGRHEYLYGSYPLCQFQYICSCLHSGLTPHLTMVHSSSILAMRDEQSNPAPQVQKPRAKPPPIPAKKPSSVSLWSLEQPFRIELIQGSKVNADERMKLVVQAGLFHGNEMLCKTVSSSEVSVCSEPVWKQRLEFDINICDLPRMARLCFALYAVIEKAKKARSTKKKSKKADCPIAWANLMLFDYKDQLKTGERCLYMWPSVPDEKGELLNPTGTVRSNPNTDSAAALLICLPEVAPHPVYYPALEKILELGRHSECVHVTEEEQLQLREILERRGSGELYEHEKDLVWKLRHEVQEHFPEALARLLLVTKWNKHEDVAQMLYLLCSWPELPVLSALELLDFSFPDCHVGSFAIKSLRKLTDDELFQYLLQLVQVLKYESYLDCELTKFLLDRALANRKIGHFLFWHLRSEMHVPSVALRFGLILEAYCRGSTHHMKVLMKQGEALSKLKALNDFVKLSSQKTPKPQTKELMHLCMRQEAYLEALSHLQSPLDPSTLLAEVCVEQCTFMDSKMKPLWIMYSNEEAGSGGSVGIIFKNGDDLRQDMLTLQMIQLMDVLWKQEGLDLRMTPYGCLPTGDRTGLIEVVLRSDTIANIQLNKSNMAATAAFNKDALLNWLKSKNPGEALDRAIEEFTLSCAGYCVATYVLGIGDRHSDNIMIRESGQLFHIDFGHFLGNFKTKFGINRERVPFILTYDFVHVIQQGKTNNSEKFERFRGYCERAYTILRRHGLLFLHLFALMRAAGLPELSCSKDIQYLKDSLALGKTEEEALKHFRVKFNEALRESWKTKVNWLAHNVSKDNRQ

Jurkat [6] = experiment: Induction of apoptosis against human Jurkat cells assessed as necrotic cells at 1 uM measured for 24 hrs by Annexin V-FITC/propidium iodide staining based flow cytometry (reference value: 0.00%); type: functional
Jurkat [7] = experiment: Induction of apoptosis against human Jurkat cells assessed as late apoptotic cells at 0.1 uM measured for 24 hrs by Annexin V-FITC/propidium iodide staining based flow cytometry (reference value: 0.00%); type: functional
THP-1 [8] = experiment: Induction of apoptosis against human THP-1 cells assessed as early apoptotic cells at 0.1 uM measured for 24 hrs by Annexin V-FITC/propidium iodide staining based flow cytometry (reference value: 10.3%); type: functional
[9] = biological target: T1, Serine/threonine-protein kinase AKT (Homo sapiens); experiment: Inhibition of AKT phosphorylation in human Jurkat cells at 1 uM incubated for 1 to 12 hrs by Western blot analysis relative to control; type: cell-based; conditions: time 1-12 hrs
THP-1 [10] = experiment: Induction of apoptosis against human THP-1 cells assessed as necrotic cells at 0.1 uM measured for 24 hrs by Annexin V-FITC/propidium iodide staining based flow cytometry (reference value: 0.316%); type: functional
Jurkat [11] = experiment: Induction of apoptosis against human Jurkat cells assessed as necrotic cells at 0.1 uM measured for 24 hrs by Annexin V-FITC/propidium iodide staining based flow cytometry (reference value: 0.00%); type: functional
RAW264.7 [12] = experiment: Inhibition of AKT phosphorylation in mouse RAW264.7 cells at 1 uM incubated for 1 to 12 hrs by Western blot analysis relative to control; type: cell-based; conditions: time 1-12 hrs
[13] = Cytotoxicity against mouse L929 cells assessed as reduction in cell viability incubated for 24 hrs by CCK-8 assay; type: toxicity, cell-based
Jurkat [14] = experiment: Induction of apoptosis against human Jurkat cells assessed as late apoptotic cells at 10 uM measured for 24 hrs by Annexin V-FITC/propidium iodide staining based flow cytometry (reference value: 0.00%); type: functional
[15] = biological target: T3, Phosphatidylinositol 4,5-bisphosphate 3-kinase catalytic subunit gamma isoform (Homo sapiens, UniProt P48736); experiment: Antagonist activity at PI3Kgamma (unknown origin) assessed as inhibition rate at 20 nM using PIP2 as substrate in presence of ATP incubated for 30 to 60 mins by ADP-glo based luminescence assay relative to control; conditions: filed as antagonist, time 30-60 min
Target sequence in this assay (P48736 whole entry, looked up, canonical isoform): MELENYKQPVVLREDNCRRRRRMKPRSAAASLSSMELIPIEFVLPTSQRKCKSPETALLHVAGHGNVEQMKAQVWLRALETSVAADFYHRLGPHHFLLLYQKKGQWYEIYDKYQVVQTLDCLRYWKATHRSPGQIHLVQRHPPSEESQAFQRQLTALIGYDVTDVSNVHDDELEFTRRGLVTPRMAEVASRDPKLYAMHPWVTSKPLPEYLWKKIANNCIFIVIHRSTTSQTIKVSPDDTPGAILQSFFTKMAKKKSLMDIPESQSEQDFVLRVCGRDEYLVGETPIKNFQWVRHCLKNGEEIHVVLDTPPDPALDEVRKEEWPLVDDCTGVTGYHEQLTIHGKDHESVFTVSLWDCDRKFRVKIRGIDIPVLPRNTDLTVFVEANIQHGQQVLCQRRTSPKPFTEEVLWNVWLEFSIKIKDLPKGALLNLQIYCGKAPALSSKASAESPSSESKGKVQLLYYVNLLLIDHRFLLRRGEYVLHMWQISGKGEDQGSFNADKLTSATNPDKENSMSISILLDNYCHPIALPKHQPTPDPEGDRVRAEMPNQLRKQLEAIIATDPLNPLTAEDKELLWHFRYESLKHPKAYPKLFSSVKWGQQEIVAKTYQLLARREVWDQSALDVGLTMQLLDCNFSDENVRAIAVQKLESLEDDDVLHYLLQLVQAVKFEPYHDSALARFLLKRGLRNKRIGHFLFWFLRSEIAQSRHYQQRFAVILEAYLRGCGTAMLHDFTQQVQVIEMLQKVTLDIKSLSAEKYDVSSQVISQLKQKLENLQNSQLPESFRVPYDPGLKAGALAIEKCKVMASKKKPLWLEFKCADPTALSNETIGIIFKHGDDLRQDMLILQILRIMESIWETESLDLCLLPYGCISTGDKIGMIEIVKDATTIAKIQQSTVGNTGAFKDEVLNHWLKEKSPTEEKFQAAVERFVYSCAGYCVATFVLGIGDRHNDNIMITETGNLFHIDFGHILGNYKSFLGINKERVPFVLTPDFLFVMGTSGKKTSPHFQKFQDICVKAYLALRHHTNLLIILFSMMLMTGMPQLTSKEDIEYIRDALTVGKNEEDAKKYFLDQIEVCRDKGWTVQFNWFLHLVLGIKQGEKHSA

[16] = biological target: T1, Serine/threonine-protein kinase AKT (Homo sapiens); experiment: Inhibition of AKT phosphorylation in human THP-1 cells at 1 uM incubated for 1 to 12 hrs by Western blot analysis relative to control; type: cell-based; conditions: time 1-12 hrs
[17] = biological target: T3, Phosphatidylinositol 4,5-bisphosphate 3-kinase catalytic subunit gamma isoform; experiment: Antagonist activity at PI3Kgamma (unknown origin) using PIP2 as substrate in presence of ATP incubated for 30 to 60 mins by ADP-glo based luminescence assay
Target sequence in this assay (P48736 whole entry, canonical isoform): as the sequence (P48736 whole entry, looked up, canonical isoform) above

Jurkat [18] = experiment: Downregulation of phosphorylated AKT protein expression in human Jurkat cells measured for 3 hrs; type: functional, cell-based; conditions: dose 0.1-10 µM
THP-1 [19] = experiment: Induction of apoptosis against human THP-1 cells assessed as late apoptotic cells at 1 uM measured for 24 hrs by Annexin V-FITC/propidium iodide staining based flow cytometry (reference value: 3.70%); type: functional
THP-1 [20] = experiment: Induction of apoptosis against human THP-1 cells assessed as necrotic cells at 10 uM measured for 24 hrs by Annexin V-FITC/propidium iodide staining based flow cytometry (reference value: 0.316%); type: functional
RAW264.7 [21] = experiment: Cytotoxicity against mouse RAW264.7 cells assessed as reduction in cell viability incubated for 24 hrs by CCK-8 assay; type: functional, cell-based; conditions: RAW264.7, 24 h
Jurkat [22] = experiment: Upregulation of phosphorylated p38 protein expression in human Jurkat cells at 1 uM measured for 3 hrs; type: functional, cell-based

T1 sequence (P31749 whole entry, looked up): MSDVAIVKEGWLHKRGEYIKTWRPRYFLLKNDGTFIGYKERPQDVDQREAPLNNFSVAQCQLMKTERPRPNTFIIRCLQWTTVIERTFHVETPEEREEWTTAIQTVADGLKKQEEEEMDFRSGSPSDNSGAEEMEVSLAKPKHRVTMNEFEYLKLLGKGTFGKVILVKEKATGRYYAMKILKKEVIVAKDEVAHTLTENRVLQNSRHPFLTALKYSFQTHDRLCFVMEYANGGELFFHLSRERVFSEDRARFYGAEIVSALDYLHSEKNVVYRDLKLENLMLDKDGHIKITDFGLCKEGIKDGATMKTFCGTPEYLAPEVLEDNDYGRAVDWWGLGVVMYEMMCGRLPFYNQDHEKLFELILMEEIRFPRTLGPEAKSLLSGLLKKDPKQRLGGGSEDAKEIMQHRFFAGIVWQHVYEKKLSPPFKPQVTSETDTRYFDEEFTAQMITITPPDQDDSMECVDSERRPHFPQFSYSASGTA
T1 sequence (P31751 whole entry, looked up): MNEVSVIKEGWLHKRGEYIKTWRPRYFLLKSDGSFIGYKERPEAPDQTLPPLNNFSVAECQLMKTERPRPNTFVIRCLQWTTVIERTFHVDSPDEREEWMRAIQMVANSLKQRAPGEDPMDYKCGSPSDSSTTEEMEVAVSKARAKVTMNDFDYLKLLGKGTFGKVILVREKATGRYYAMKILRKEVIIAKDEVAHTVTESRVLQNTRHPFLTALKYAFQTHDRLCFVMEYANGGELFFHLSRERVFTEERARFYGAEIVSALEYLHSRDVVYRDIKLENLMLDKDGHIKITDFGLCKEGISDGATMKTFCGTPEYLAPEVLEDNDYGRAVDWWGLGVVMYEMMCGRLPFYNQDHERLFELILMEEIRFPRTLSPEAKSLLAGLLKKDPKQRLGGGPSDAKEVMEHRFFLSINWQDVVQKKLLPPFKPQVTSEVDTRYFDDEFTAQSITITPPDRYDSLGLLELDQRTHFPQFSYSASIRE
T1 sequence (Q9Y243 whole entry, looked up): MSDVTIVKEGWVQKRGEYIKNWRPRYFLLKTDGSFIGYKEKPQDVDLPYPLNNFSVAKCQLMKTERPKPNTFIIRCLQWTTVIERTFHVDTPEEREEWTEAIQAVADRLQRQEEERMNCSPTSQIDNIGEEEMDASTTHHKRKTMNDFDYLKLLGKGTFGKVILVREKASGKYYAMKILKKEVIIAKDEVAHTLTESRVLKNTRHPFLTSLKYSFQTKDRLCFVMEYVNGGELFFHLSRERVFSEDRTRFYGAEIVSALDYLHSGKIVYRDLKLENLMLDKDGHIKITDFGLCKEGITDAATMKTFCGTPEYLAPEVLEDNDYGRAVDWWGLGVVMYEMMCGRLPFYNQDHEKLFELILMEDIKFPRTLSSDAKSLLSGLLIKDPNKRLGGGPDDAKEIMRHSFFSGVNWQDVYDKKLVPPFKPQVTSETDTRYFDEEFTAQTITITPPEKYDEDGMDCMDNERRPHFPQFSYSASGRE

inhibition [3]: Dose-Dependent Effect
inhibition [5]: 16%
inhibition [9]: Active
inhibition [15]: 53%
inhibition [16]: Active
IC50 [17]: 0.208 µM
SMILES: COc1ccc(C#Cc2cccc3cc(C(C)Nc4ncnc5[nH]cnc45)n(-c4ccccc4)c(=O)c23)cc1 (centres undefined)
IC50 (A549): > 100 µM
Activity (Jurkat [1]): 0.016%
IC50 (B16-F10): > 100 µM
Activity (Jurkat [2]): Dose-Dependent Effect
viability at 1 µM (Jurkat [4]): 82.3%
Activity (Jurkat [6]): 0%
Activity (Jurkat [7]): 0.025%
Activity (THP-1 [8]): 25.3%
Activity (THP-1 [10]): 0.125%
Activity (Jurkat [11]): 0%
inhibition (RAW264.7 [12]): Active
IC50 at 24 h [13]: > 100 µM
Activity (Jurkat [14]): 0.047%
Activity (Jurkat [18]): Dose-Dependent Effect
Activity (THP-1 [19]): 4.63%
Activity (THP-1 [20]): 0.053%
IC50 (RAW264.7 [21]): 4.54 µM
Activity (Jurkat [22]): Active
